PubChem BioAssay AID540271 (Broad Institute, 2011)
The source made the active and inactive calls. No rule for the calls is given here.

Tested on: S. cerevisiae expressing PfHSP40, growth rescue, plate reader
Assay: Yeast growth rescue from Plasmodium falciparum HSP40 toxicity, dose response confirmatory, plate reader (AID 540271);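 also: yeast growth read after three days of incubation at 30 °C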

Compound: COc1ccccc1N(C)S(=O)(=O)c1ccc(Cl)c(C(=O)NNC(=O)c2ccccc2O)c1
- AC50: 2.64 µM

Compound: COc1cnc(-c2ccccn2)nc1Sc1ccc(C)cc1
- AC50: 5.97 µM

Compound: Oc1ccc(/C=N/Nc2ccc(C(F)(F)F)cn2)c(O)c1
- AC50: 2.14 µM

Compound: O=C(OCC(=O)C12CC3CC(CC(C3)C1)C2)c1ccc(O)cc1
- AC50: 1.69 µM

Compound: CCCCC(CC)c1nnc(NC(=O)c2cccs2)s1 (stereo not drawn)
- AC50: 6.66 µM

Compound: CC1CCN(c2ccc3c(c2)S(=O)(=O)c2ccccc2C3=O)CC1
- AC50: 9.89 µM

Compound: O=C(Sc1cccc2cccnc12)c1ccccc1Br
- AC50: 6.63 µM

Compound: O=C1C(Nc2ccccc2)=C/C(=N/S(=O)(=O)c2cccs2)c2ccccc21
- AC50: 3.48 µM

Compound: CN(C)c1ccc(C=c2c3cc(O)ccc3n3c2cc(-c2ccccc2)[n+]3C)cc1
- AC50: 2.88 µM

Compound: CCN1/C(=C/c2sc(-c3ccccc3C)c[n+]2C)Sc2ccccc21
- AC50: 5.83 µM

Compound: c1ccc(-c2ccc(OCCCn3cncn3)cc2)cc1
- AC50: 5.48 µM

Compound: O=C1c2cc(F)ccc2-n2c1nc1ccccc1c2=O
- AC50: 0.927 µM

Compound: C=CCn1c(-c2cc(-c3ccc(C)cc3)nc3ccccc23)n[nH]c1=S
- AC50: 5.81 µM

Compound: [O-][n+]1cccc2c(Br)cc(Br)c(O)c21
- AC50: 2.69 µM

Compound: CC1CCc2c(C(=O)Nc3ccccn3)csc2C1 (stereo not drawn)
- AC50: 9.29 µM

Compound: Clc1nc(-c2ccccn2)nc2scc(-c3ccccc3)c12
- AC50: 5.78 µM

Compound: Oc1ccc(-c2nc3ccccc3s2)c(O)c1
- AC50: 7.43 µM

Compound: Cn1ccsc1=NC(=O)c1ccc([N+](=O)[O-])o1
- AC50: > 12 µM (inactive)

Compound: C=C(C)COc1ccc(-c2[nH]ncc2-c2ccc(Br)cc2)c(O)c1
- AC50: 4.66 µM

Compound: COc1ccc2oc(=O)c(-c3csc(Nc4cccc(O)c4)n3)cc2c1
- AC50: 4.91 µM

Compound: O=[N+]([O-])c1ccc2c(OCc3nnc(-c4ccccc4Br)o3)ncnc2c1
- AC50: 6.17 µM

Compound: CCC(=O)NC(c1cc(Cl)c2cccnc2c1O)C(C)C (stereo not drawn)
- AC50: 5.29 µM

Compound: CC(C)(C)C(=O)C(Cl)C(=O)Nc1ccccc1 (stereo not drawn)
- AC50: 5.65 µM

Compound: CC(C)(C)c1cc(-c2nc(N)nc(N)n2)c(O)c(C(C)(C)C)c1
- AC50: 4.99 µM

Compound: Cc1cccc2sc(NNC(=O)c3ccc(S(=O)(=O)N4CC(C)CC(C)C4)cc3)nc12 (stereo not drawn)
- AC50: 1.65 µM

Compound: C=CCN(CC=C)C(=S)NC(=O)c1ccc(C)c(Br)c1
- AC50: 6.72 µM

Compound: NC(=O)N=Nc1c2[nH]c3ccccc3nc-2c2ccccc12
- AC50: 3.89 µM

Compound: CC(C)C(=O)NC(c1ccco1)c1ccc2cccnc2c1O (stereo not drawn)
- AC50: 4.51 µM

Compound: O/N=C/c1ccccc1OCc1ccc(Cl)cc1
- AC50: 5.07 µM

Compound: Cc1ccc(S(=O)(=O)N(C(=O)c2ccncc2)c2ccc(OC(=O)c3ccncc3)cc2)cc1
- AC50: 1.83 µM

Compound: CCOC(=O)c1cnc(-n2nc(C)cc2C)nc1NC1CCCC1
- AC50: 7.65 µM

Compound: Cc1cc(Cl)ccc1C(=O)C1CCCN(C(=O)c2cncs2)C1 (stereo not drawn)
- AC50: 4.83 µM

Compound: CCCCNC(=S)N/N=C1\CCCCc2ccccc21
- AC50: 10.3 µM

Compound: COc1cccc(/C=N/Nc2ncnc3scc(-c4ccccc4)c23)c1O
- AC50: 1.7 µM

Compound: O=[N+]([O-])c1ccc(S(=O)(=O)c2ccccc2)nc1
- AC50: 2.23 µM

Compound: Cc1ccc(NC(=S)Nc2cccc3cnccc23)cc1C
- AC50: > 12 µM (inactive)

Compound: CCc1cc(SC#N)cc(C)c1NC(=O)CCl
- AC50: 4.4 µM

Compound: CCCn1nc(C(=O)N2CCN(S(=O)(=O)c3ccc(C)c(C)c3)CC2)c2ccccc2c1=O
- AC50: 6.13 µM

Compound: Cc1csc(NC(=O)C(C)Oc2ccc(Cl)cc2C)n1 (stereo not drawn)
- AC50: 8.4 µM

Compound: CNC(=S)Nc1ccc(C23CC4CC(CC(C4)C2)C3)cc1
- AC50: 7.25 µM

Compound: O=C1CC(N2CCCCCC2)C(=O)N1c1ccc2c(c1)OCO2 (stereo not drawn)
- AC50: 4.18 µM

Compound: CC(C)(C)n1nc(-c2ccc(Cl)cc2)c2c(N)ncnc21
- AC50: 1.56 µM

Compound: Cc1ccc(C)c(/C=C/C(=O)c2ccccc(=O)c2O)c1
- AC50: 3.17 µM

Compound: CC(C)(C)C(O)C(Cc1ccccc1Cl)n1cncn1 (stereo not drawn)
- AC50: 0.215 µM

Compound: CCCOc1ccc2ccccc2c1/C=C1\SC(=O)NC1=O
- AC50: 5.65 µM

Compound: COc1ccc(O)c(C(=O)CC(=O)c2ccccc2C)c1
- AC50: 6.31 µM

Compound: Cc1ccccc1C(=O)NNC(=S)NC(=O)c1ccc(Cl)cc1Cl
- AC50: 2.36 µM

Compound: COC(=O)COC(=O)c1ccccc1NC(=O)c1ccccc1
- AC50: 3.13 µM

Compound: Clc1ccccc1C(c1ccccc1)(c1ccccc1)n1ccnc1
- AC50: 0.387 µM

Compound: Cc1ccoc1C(=O)Nc1cccc(Oc2ccccc2)c1
- AC50: 2.85 µM

Compound: CCC(Oc1ccc(Br)cc1Cl)C(=O)Nc1nnc(C2CC2)s1 (stereo not drawn)
- AC50: 4.51 µM

Compound: COc1cc(/C=C2\SC(=S)N(NS(=O)(=O)c3ccc(C)cc3)C2=O)ccc1O
- AC50: 7.05 µM

Compound: CN(Cc1ccc(Cl)s1)C(=O)CCl
- AC50: 6.37 µM

Compound: O=c1c(O)c(-c2ccccc2)oc2ccccc12
- AC50: 5.37 µM

Compound: Cc1ccc(-c2cc(-c3ccc(C)cc3)[n+](-c3ccccc3)c(-c3ccc(C)cc3)c2)cc1
- AC50: 5.4 µM

Compound: Nc1cc2nc3ccccc3oc-2cc1=O
- AC50: 1.52 µM

Compound: COc1ccc(-c2csc(NC(=O)c3ccccc3F)c2C(=O)O)cc1
- AC50: 3.69 µM

Compound: COc1cccc(/C=N/Nc2ncc(C(F)(F)F)cc2Cl)c1O
- AC50: 1.49 µM

Compound: O=C(c1ccc(-c2ccccc2)c(F)c1)C1CCCN(C(=O)c2cncs2)C1 (stereo not drawn)
- AC50: 5.68 µM

Compound: Nc1nc2sc3c(c2c(=O)s1)CCCC3
- AC50: 3.58 µM

Compound: CCCn1c2ccccc2c2cc(C(=O)O)ccc21
- AC50: 7.09 µM

Compound: CC1=CC(C)(C)N(S(=O)(=O)c2ccc(C)cc2)c2ccc(C)cc21
- AC50: 7.54 µM

Compound: Clc1ccc(CSC(Cn2ccnc2)c2ccc(Cl)cc2Cl)cc1 (stereo not drawn)
- AC50: 0.25 µM

Compound: O=C1N(c2ccc(Cl)cc2)C(c2cccnc2)N2CCCN12 (stereo not drawn)
- AC50: 6.03 µM

Compound: Cc1ccc2c(c1C)-c1c(ccc(C)c1C)C(=O)C2=O
- AC50: 1.48 µM

Compound: COc1ccc(CNc2ncnc3sccc23)cc1
- AC50: 4.38 µM

Compound: CC1CCc2sc(-c3n[nH]c(=S)o3)cc2C1 (stereo not drawn)
- AC50: 5.69 µM

Compound: Cn1nnnc1N=N/C(=N/Nc1ccccc1)c1ccccc1
- AC50: 1.85 µM

Compound: COc1cccc(/C=N/NC(=O)c2cc(-c3cccn3C)n[nH]2)c1O
- AC50: 10.2 µM

Compound: CC1=NN(C(N)=S)C(=O)C1N=Nc1cccc(Cl)c1C (stereo not drawn)
- AC50: 3.3 µM

Compound: Cc1ccc(C(=O)Sc2cccccc2=O)cc1
- AC50: 0.295 µM

Compound: CC(C)(C)c1ccc(Oc2ccc(N)cc2)cc1
- AC50: 7.32 µM

Compound: COc1ccc(C2=CC(=O)C[C@H](c3ccc4c(c3)OCO4)C2)cc1
- AC50: 6.93 µM

Compound: O=C(Oc1c(Cl)cc(Cl)c2cccnc12)c1cccs1
- AC50: 1.94 µM

Compound: O=C(COC(=O)c1ccc([N+](=O)[O-])o1)NCc1ccc(F)cc1
- AC50: 6.66 µM

Compound: COc1ccc2c(c1)OC[C@H]1[C@H]2N2C(=O)c3cc(Cl)ccc3NC(=O)[C@@]2(C)[C@H]1c1ccccc1
- AC50: 4.63 µM

Compound: O=c1[nH]cc(F)c(=O)[nH]1
- AC50: 0.562 µM

Compound: Cc1[nH]n(-c2ccccc2)c(=O)c1/C=N/Nc1nncc(-c2ccccc2)n1
- AC50: 7.15 µM

Compound: CCCSC(=S)c1c(C)[nH]n(-c2ccccc2)c1=O
- AC50: 5.46 µM

Compound: Cc1nnc(N/N=C/c2cccc(OCc3ccc(Cl)c(Cl)c3)c2)n1N
- AC50: > 12 µM (inactive)

Compound: O=C1c2ccccc2NC(c2ccc(-c3ccc(F)cc3)o2)N1O (stereo not drawn)
- AC50: 8.42 µM

Compound: CC1=C(C)/C(=N\OS(=O)(=O)c2ccc(C)cc2)C=CC1=O
- AC50: 5 µM

Compound: COc1cccc(C(C)=C2SC(=S)NC2=O)c1
- AC50: 9.37 µM

Compound: CC(C)c1cc(-c2cc(C(=O)NCc3ccccc3)on2)nc(NCC2CC2)n1
- AC50: 5.24 µM

Compound: COc1nc(NC23CC4CC(CC(C4)C2)C3)nc(OC)n1
- AC50: 10.9 µM

Compound: Cc1cccc(C)c1NS(=O)(=O)c1ccc(-c2cnc(C3CC3)o2)cc1
- AC50: 6.06 µM

Compound: COc1ccc(NC(=O)/C(Cl)=C(/Cl)S(=O)(=O)Cc2ccc(C)cc2)cn1
- AC50: 4.67 µM

Compound: COC(=O)c1cccc2c1-c1ccccc1/C2=N/O
- AC50: 4.95 µM

Compound: Oc1ccccc1-c1nnc(SCCN2CCOCC2)n1Cc1ccccc1
- AC50: 5.94 µM

Compound: CC(C)=CCc1c(O)cc(O)c2c1OC(c1ccc(O)cc1)CC2=O (stereo not drawn)
- AC50: 5.76 µM

Compound: Cc1ccc(-c2nn(C(C)(C)C)c3ncnc(N)c23)cc1
- AC50: 1.28 µM

Compound: COc1cccc(/C=N/Nc2ncnc(Cl)c2N)c1O
- AC50: 4.52 µM

Compound: CSC1SCC2C(=O)N(C)C(C(C)C)C(=O)OCC(NC(=O)c3cnc4ccccc4n3)C(=O)NC(C)C(=O)N(C)C1C(=O)N(C)C(C(C)C)C(=O)OCC(NC(=O)c1cnc3ccccc3n1)C(=O)NC(C)C(=O)N2C (stereo not drawn)
- AC50: > 12 µM (inactive)

Compound: Cc1ccc(O)c(-c2cc(-c3ccccc3C)[nH]n2)c1
- AC50: 5.42 µM

Compound: C(=N\Nc1nncc2ccccc12)/c1ccccn1
- AC50: 4.74 µM

Compound: CN(C)c1ccc(C=c2c3ccccc3n3c2c2c([n+]3C)CCCC2)cc1
- AC50: 2.64 µM

Compound: CCC(C)Sc1cccc(-c2nc3ccccn3c2NCc2ccccc2)c1 (stereo not drawn)
- AC50: 7.22 µM

Compound: Cc1cc(/C=C2\SC(=S)NC2=O)c(C)n1-c1cccc(O)c1
- AC50: 9.83 µM

Compound: O=[N+]([O-])c1ccc(-c2nc(-c3cccs3)c(-c3cccs3)[nH]2)cc1
- AC50: 4.2 µM

Compound: O=C(NC1=CC(=O)c2ccccc2C1=O)c1ccccc1
- AC50: 7.77 µM

Compound: CCC(C)c1ccc(NC(=S)NCCn2cc(Br)cn2)cc1 (stereo not drawn)
- AC50: 10.1 µM

Compound: O=c1cc(CSc2ccc(Cl)cc2)nc(-c2ccccn2)[nH]1
- AC50: 4.13 µM

Compound: Cc1ccc(CCNc2ncnc(Cl)c2N)cc1
- AC50: 4.48 µM

Compound: CC(=O)Nc1ccc2c(c1)Cc1cc(N3C(=O)C=CC3=O)ccc1-2
- AC50: 0.526 µM

Compound: O=C(N/N=C/c1ccc[nH]1)c1sc2ccccc2c1Cl
- AC50: 6.23 µM

Compound: O=C1c2ccccc2-n2c1nc1ccccc1c2=O
- AC50: 1.83 µM

Compound: CCc1ccc(C(C)NC(=S)NC2CCCCC2)cc1 (stereo not drawn)
- AC50: 7.1 µM

Compound: CC(C)CNC(=O)COC(=O)c1ccc([N+](=O)[O-])cc1Cl
- AC50: > 12 µM (inactive)

Compound: CC(C)CSc1n[nH]c(=S)s1
- AC50: 6.48 µM

Compound: O=C(O)c1ccc(N/N=C/C=C/c2ccccc2)cc1
- AC50: 3.72 µM

Compound: Clc1ccc(OCc2nc(-c3ccncc3)no2)c(Br)c1
- AC50: 6.2 µM

Compound: COc1ccc2c(c1)[C@H]1[C@H](CO2)[C@H](c2ccccc2)[C@]2(C)C(=O)Nc3ccc(Cl)cc3C(=O)N12
- AC50: > 12 µM (inactive)

Compound: Oc1ccc(Cl)cc1CNc1cccc2cccnc12
- AC50: 6.73 µM

Compound: Cc1cc(-c2ccccc2)n(-c2cc(N/N=C/c3ccccc3O)ncn2)n1
- AC50: 5.77 µM

Compound: O=C(NC(=S)N(CCc1ccccc1)CCc1ccccc1)c1ccco1
- AC50: 5.34 µM

Compound: Cc1cc(/C=C2\SC(=S)N(C)C2=O)c(C)n1-c1ccc(O)cc1
- AC50: 3.33 µM

Compound: O=c1c(/C=N/O)coc2ccc(Cl)cc12
- AC50: > 12 µM (inactive)

Compound: CC[C@@H](C(=O)[C@@H](C)[C@@H](O)[C@H](C)[C@@H]1O[C@@H]([C@@H](CC)C(=O)O)CC[C@@H]1C)[C@H]1O[C@]2(C=C[C@@H](O)[C@]3(CC[C@@](C)([C@H]4CC[C@](O)(CC)[C@H](C)O4)O3)O2)[C@H](C)C[C@@H]1C
- AC50: 3 µM
